# Assay results published in patent US20100197788A9, “Preventive or therapeutic agent for disease caused by decrease in lacrimal fluid” (priority 2005, published 2010).
# Where a name gives a salt, the structure may show the parent alone.
# Legend:
# [1] = tested on: male Japanese white rabbits; test: Measurement of tear secretion in rabbits given a β3 AR stimulant (Example 1), with or without ICI-118551 pre-treatment; assay type: in vivo, rabbit
# Description: Four fasting male Japanese white rabbits (about 3 kg) were allocated to each group. Compound 1 (hydrochloride, 3 or 30 mg/kg), a β3 AR stimulant, or the vehicle (0.5% gum Arabic) was administered to the duodenum through a needle placed in the duodenum of a rabbit, which was anesthetized with urethane (25%, 5 mL/kg, subcutaneously). The quantity of tear secretion was measured for 5 min before drug administration and for 5 min at 20 min after drug administration in the following manner. One piece each of pre-weighed filter paper (Wattman No. 41, 0.22 mm thick, 2.5×1.5 mm) was inserted to each of the upper and lower eyelids of either right or left eye. The difference in weight of the filter papers before and after insertion (post-insertion weight−pre-insertion weight) was defined as the quantity of tear secretion. Fifty (50) μL of a local anesthetic agent, 0.4% oxybuprocaine hydrochloride (Santen Co.), was instilled into eyes 5 min before each measurement. Tear and the instilled local anesthetic were wiped immediately before the filter paper was inserted. Filter papers recovered after each measurement were placed into tubes. A phosphate buffer (pH 7.4) (500 μL) was added to each of the tubes, and they were agitated for 30 sec. After the filter papers were removed and the mixture was centrifuged at 1,880×g for 5 min, protein concentrations in supernatant were measured using Micro BCA Protein Assay Reagent Kit (Pierce Co.). The quantity of protein in tear was calculated based on the protein concentration and the quantity of tear secretion at each time. The difference in the quantity of tear secretion before administration of a test drug and that at each measurement after administration was defined as a change in the quantity of tear secretion or protein in tear. Each milligram of the change in the quantity of tear was taken as 1 μL in tabulation. As a result, administration of Compound 1 (hydrochloride, 3 or 30 mg/kg) into the duodenum facilitated the tear secretion and protein secretion in tear.
# In addition, in order to study the role played by a β2 AR stimulating activity in the above-described actions of Compound 1, 30 μg/kg of ICI-118551 (Sigma Co.), a selective β2 AR inhibitor, was administered intravenously 5 min before administration of Compound 1 (30 mg/kg) and the same test was performed. The facilitating activities of tear secretion and protein secretion in tear by Compound 1 were not affected by pre-treatment with the selective β2 AR inhibitor, ICI-118551 (30 μg/kg, i.v.) (FIG. 5). The results confirmed that the Compound 1's activities facilitating tear secretion and protein secretion in tear were exerted by way of β3 AR.
# male SD strain rats = test: Measurement of tear in rats given a β3 AR stimulant having a β2 AR stimulating activity (Example 3); assay type: in vivo, rat; details: for total quantity of protein secretion in tear / total quantity of tear secretion: 60 min, compared to Control group
# Description: Nine (9) to 10 fasting male SD strain rats (7 weeks old) were allocated to each group. Rats were fixed in prone position under urethane anesthesia (25%, 5 mL/kg, subcutaneously). Compound 2 (0.3, 1 or 10 mg/kg), which is a β3 AR stimulant having a β2 AR stimulating activity, terbutaline sulfate (10 mg/kg), which is a β2 AR stimulant, or their vehicle (distilled water) were administered to the duodenum through a needle placed in the duodenum. One end of a capillary (Drummond Microdispenser Co. 10 μL) was placed at the inner canthus of rat right eye after tear was wiped. The quantity of tear secretion was measured by the length of the capillary filled with tear in 60 minutes after drug administration. The total quantity of tear secretion (μL) was calculated using the inner diameter of the capillary and the length of the capillary filled with tear. After the quantity of tear secretion was measured, the tear in the capillary was recovered in a tube to measure the protein concentration using Micro BCA Protein Assay Reagent Kit (Pierce Co.). The total quantity of protein in tear was calculated using the obtained protein concentration and the total quantity of tear secretion.
# rabbit conjunctiva = test: Mucin secretion from the rabbit conjunctiva following ocular instillation, impression cytology method (Example 5); assay type: in vivo; details: 0.1% solution, 50 μL, 30 min after instillation, vs vehicle, rabbits
# Description: Four male Japanese white rabbits (about 3 kg) were allocated to each group. After rabbits were anesthetized with ketamine-xylazine (3:1), 50 μL of Compound 2 (0.1% solution), terbutaline sulfate (0.1% solution) or their vehicle (a phosphate buffer solution, pH 7.4) were instilled in either side of eyes. Mucin secretion from the conjunctiva was measured 30 min after instillation by impression cytology method. That is, after ocular instillation of 50 μL of a local anesthetic (0.4% oxybuprocaine hydrochloride by Santen Co.), residual tear was wiped 5 min after instillation and 3×3 mm cellulose acetate filter paper was pressed on the conjunctiva for 30 sec. Then, PAS staining was performed with the recovered filter papers in the same manner as in Example 2. After filter papers were cleared and embedded, the number of PAS positive goblet cells existing in a certain visual field of a microscope was counted. Decreases in the count of PAS positive goblet cells indicate that mucin secretion from the conjunctiva is facilitated. […] However, terbutaline sulfate had no effect (FIG. 9).
# [2] = tested on: male Japanese white rabbits; test: Measurement of tear in rabbits given a β3 AR stimulant having a β2 AR stimulating activity (Example 2); assay type: in vivo, rabbit; details: for total quantity of protein secretion in tear / total quantity of tear secretion: 60 min, compared to Control group
# Description: Four fasting male Japanese white rabbits (about 3 kg) were allocated to each group. Compound 2 (0.3, 1 or 10 mg/kg), which is a β3 AR stimulant having a β2 AR stimulating activity, terbutaline sulfate (10 mg/kg), which is a β2 AR stimulant, or their vehicle (distilled water) was administered to the duodenum through a needle placed in the duodenum of a rabbit which was anesthetized with urethane (25%, 5 mL/kg, subcutaneously). In the same manner as in Example 1, quantities of tear secretion and protein in tear were measured for each 5 min before drug administration and at 5, 20, 30, 40 and 50 min after drug administration. The total quantities of tear secretion and protein in tear were defined as the sum total of the quantities of secretion at each measurement time during 60 min after administration of the test drug. Each […] of the change in the quantity of tear was considered as 1 μL in tabulation.
# [3] = tested on: male Japanese white rabbits; test: Measurement of tear in rabbits following ocular instillation (Example 4); assay type: in vivo, rabbit; details: 0.1% solution, 50 μL
# Description: Four fasting male Japanese white rabbits (about 3 kg) were allocated to each group. After rabbits were anesthetized with urethane (25%, 5 mL/kg, subcutaneously), 50 μL of Compound 2 (0.1% solution) or the vehicle (a phosphate buffer solution, pH 7.4) was instilled in either right or left eye. The quantity of tear secretion was measured and calculated for each 5 min before and at 5 and 20 min after instillation in the same manner as in Example 1. The difference in the quantity of tear secretion before administration of a test drug and that at each measurement time after ocular instillation was defined as a change in the quantity of tear secretion. Each milligram of the change in the quantity of tear secretion was considered as 1 μL in tabulation.
# [4] = Compound 1 30 mg/kg, ICI-118551 30 μg/kg i.v. 5 min before
# [5] = hydrochloride, 3 or 30 mg/kg into the duodenum, anesthetized rabbits, 5 min at 20 min after administration vs before
# [6] = 10 mg/kg into the duodenum, compared to Compound 2 (10 mg/kg) group
# [7] = 0.3, 1 and 10 mg/kg into the duodenum
# [8] = doses of 1 mg/kg and above into the duodenum
structure (smiles),measurement,setting,value
"CCOC(=O)COc1cc(C)c(CCN[C@@H](C)[C@H](O)c2ccc(O)cc2)cc1C [Compound 1, ethyl 2-[4-[2-[[(1S,2R)-2-hydroxy-2-(4-hydroxy-phenyl)-1-methylethyl]amino]ethyl]-2,5-dimethylphenoxy]-acetate]",change in the quantity of protein in tear,"[1]; 30 mg/kg into the duodenum, compared to Control group (p<0.05, Dunnett)",significantly increased
same,facilitating activity of protein secretion in tear after pre-treatment with selective β2 AR inhibitor,[1]; [4],not affected
same,facilitating activity of tear secretion after pre-treatment with selective β2 AR inhibitor,[1]; [4],not affected
same,protein secretion in tear,[1]; [5],facilitated
same,tear secretion,[1]; [5],facilitated
"CC(C)(C)NCC(O)c1cc(O)cc(O)c1 (stereo not drawn) [terbutaline sulfate, reference compound]",total quantity of protein secretion in tear,male SD strain rats; 10 mg/kg into the duodenum,significantly increased
same,total quantity of tear secretion,male SD strain rats; 10 mg/kg into the duodenum,significantly increased
same,total quantity of protein in tear,male SD strain rats; [6],significantly lower
same,mucin secretion from the conjunctiva (count of PAS positive goblet cells),rabbit conjunctiva,no effect
same,total quantity of protein secretion in tear,[2]; 10 mg/kg into the duodenum,significantly increased
same,total quantity of tear secretion,[2]; 10 mg/kg into the duodenum,significantly increased
same,increase in total quantity of protein secretion in tear,[2]; [6],significantly lower
same,increase in total quantity of tear secretion,[2]; [6],significantly lower
C[C@H](NCCc1ccc(OCC(=O)O)cc1)[C@H](O)c1ccc(O)cc1 [Compound 2],tear secretion,[3],facilitated
same,quantity of tear secretion measured for 5 min after ocular instillation,[3]; compared to Control group,significantly increased
same,protein secretion in tear,male SD strain rats; [7],facilitated dose-dependently
same,tear secretion,male SD strain rats; [7],facilitated dose-dependently
same,total quantity of protein secretion in tear,male SD strain rats; [8],significantly increased
same,total quantity of tear secretion,male SD strain rats; [8],significantly increased
same,mucin secretion from the conjunctiva (count of PAS positive goblet cells),rabbit conjunctiva,facilitated mucin secretion from the conjunctiva more than the vehicle did
same,protein secretion in tear,[2]; [7],facilitated dose-dependently
same,tear secretion,[2]; [7],facilitated dose-dependently
same,total quantity of protein secretion in tear,[2]; [8],significantly increased
same,total quantity of tear secretion,[2]; [8],significantly increased
